Measurements taken from patent US20110039762A1, “TARGETED ANTIMICROBIAL MOIETIES” (C3 JIAN, INC., priority 2009, published 2011).
“Also recorded” adds a separate entry of the source.

What was measured:
[1] = test system: C. jejuni; test: Kill or inhibit growth/proliferation; morphology, biofilm and growth disruption (Tables 5, 6); type: cell-based, Campylobacter jejuni; design: key: A: Peptide aggregates; B: Less hyphal formation; Clumps; Diffuse clumps and small polyps; F: Diffuse growth; H: Thin; I: Growth inhibition; Microcolony formation; Rippled; Small polyps; Thick; W: Halo formation on top, microlonies on bottom; further: test concentration or dose not given here
[2] = test system: S. pneumoniae; test: as above; type: cell-based, Streptococcus pneumoniae; design: key: A: Peptide aggregates; B: Less hyphal formation; Clumps; Diffuse clumps and small polyps; F: Diffuse growth; H: Thin; I: Growth inhibition; Microcolony formation; Rippled; Small polyps; Thick; W: Halo formation on top, microlonies on bottom; further: test concentration or dose not given here
[3] = test system: E. faecalis; test: as above; type: cell-based, Enterococcus faecalis; design: key: A: Peptide aggregates; B: Less hyphal formation; Clumps; Diffuse clumps and small polyps; F: Diffuse growth; H: Thin; I: Growth inhibition; Microcolony formation; Rippled; Small polyps; Thick; W: Halo formation on top, microlonies on bottom; further: test concentration or dose not given here
[4] = test system: microorganisms; test: Peptides having multiple activities (targeting/binding, antimicrobial, growth or phenotype altering)
Source text: In certain embodiments, peptides described herein can have multiple activities. Thus for example, a peptide can have both binding/targeting activity and antimicrobial activity. Such peptides can be used, e.g., in a chimeric construct, for any or all of these properties. Thus, for example, a peptide designated “B” in Table 8 can be used as a targeting peptide. If it is also designated G or M it can also be used for antimicrobial activity.

[5] = test system: microorganisms (e.g., bacteria, yeasts, fungi); test: Targeting peptide binding to target microorganisms (Table 3); details: preferably 1x PBS; for Target(s): microorganism(s) the targeting peptide binds, peptide binding conducted in aqueous buffers varied by peptide solubility; for Target(s) (microorganisms bound by the targeting peptide): peptide binding in aqueous buffers varied by peptide solubility
[6] = test system: MRSA; test: Kill or inhibit growth/proliferation; morphology, biofilm and growth disruption (Tables 5, 6); type: cell-based, Methicillin-resistant Staphylococcus aureus; design: key: A: Peptide aggregates; B: Less hyphal formation; Clumps; Diffuse clumps and small polyps; F: Diffuse growth; H: Thin; I: Growth inhibition; Microcolony formation; Rippled; Small polyps; Thick; W: Halo formation on top, microlonies on bottom; further: test concentration or dose not given here
[7] = test system: S. epidermidis; test: as above; type: cell-based, Staphylococcus epidermidis; design: key: A: Peptide aggregates; B: Less hyphal formation; Clumps; Diffuse clumps and small polyps; F: Diffuse growth; H: Thin; I: Growth inhibition; Microcolony formation; Rippled; Small polyps; Thick; W: Halo formation on top, microlonies on bottom; further: test concentration or dose not given here
[8] = test system: E. coli; test: as above; type: cell-based, Escherichia coli; design: key: A: Peptide aggregates; B: Less hyphal formation; Clumps; Diffuse clumps and small polyps; F: Diffuse growth; H: Thin; I: Growth inhibition; Microcolony formation; Rippled; Small polyps; Thick; W: Halo formation on top, microlonies on bottom; further: test concentration or dose not given here

| Molecule | Organism, effect [1] | Organism, effect [2] | Organism, effect [3] | Activities [4] | Target(s) [5] | Organism, effect [6] | Organism, effect [7] | Organism, effect [8] | Target(s) (microorganisms bound by the targeting peptide) [5] |
| --- | --- | --- | --- | --- | --- | --- | --- | --- | --- |
| DLLKSLLGQDGAKNDEIIEFIKIIMEK [PF-591] | C. jejuni (C) | S. pneumoniae (R) | E. faecalis (A) | – | – | – | – | – | – |
| PF-392: peptide having multiple activities (chain 1 DPAGCNDIVRKYCK; chain 2 DPAGCNDIVRKYCK; Peptide with targeting and/or antimicrobial activity) | C. jejuni (A) | – | E. faecalis (A) | G B | S. epidermidis; also recorded: B. subtilis; also recorded: S. pneumoniae; also recorded: C. jeikeium; also recorded: C. jejuni | MRSA (S) | – | – | – |
| PF-393: peptide having multiple activities (chain 1 DLVQSILSEFKKSG; chain 2 DLVQSILSEFKKSG; Peptide with targeting and/or antimicrobial activity) | C. jejuni (R) | S. pneumoniae (R) | E. faecalis (A) | G B | S. epidermidis and E. coli and C. albicans and MRSA and S. pneumoniae and C. jejuni | MRSA (C) | S. epidermidis (R) | – | – |
| PF-418: peptide having multiple activities (FFLVHFYIRKRKGKVSIFLNYF; Peptide with targeting and/or antimicrobial activity) | C. jejuni (D) | S. pneumoniae (D) | E. faecalis (D) | G B | – | MRSA (D) | S. epidermidis (M) | E. coli (C) | – |
| PF-431: peptide having multiple activities (VAYAAICWW; Peptide with targeting and/or antimicrobial activity) | C. jejuni (R) | S. pneumoniae (R) | E. faecalis (R) | G B | – | MRSA (C) | S. epidermidis (M) | – | – |
| PF-456: peptide having multiple activities (chain 1 TCVKPRTIN; chain 2 TCVKPRTIN; Peptide with targeting and/or antimicrobial activity) | C. jejuni (A) | – | E. faecalis (A) | G B | C. albicans and MRSA and E. faecalis and C. jeikeium and C. jejuni | – | – | – | – |
| PF-469: peptide having multiple activities (chain 1 YKVNYNNIDNHFNTLRH; chain 2 YKVNYNNIDNHFNTLRH; Peptide with targeting and/or antimicrobial activity) | C. jejuni (D) | S. pneumoniae (D) | E. faecalis (D) | G B | – | MRSA (D) | S. epidermidis (D) | E. coli (C) | – |
| PF-470: peptide having multiple activities (chain 1 PYSDSYATRPHWEQHRAR; chain 2 PYSDSYATRPHWEQHRAR; Peptide with targeting and/or antimicrobial activity) | C. jejuni (A) | – | E. faecalis (A) | G B | M. luteus and E. coli and MRSA and E. faecalis and C. jeikeium and C. jejuni | – | – | – | – |
| PF-576: peptide having multiple activities (chain 1 AYSGELPEPLVRKMSKEQVRSVMGK; chain 2 AYSGELPEPLVRKMSKEQVRSVMGK; Peptide with targeting and/or antimicrobial activity) | C. jejuni (C) | S. pneumoniae (C) | – | G B | M. luteus; also recorded: P. mirabilis; also recorded: E. coli; also recorded: P. aeruginosa; also recorded: C. albicans; also recorded: S. pneumoniae | MRSA (R) | S. epidermidis (A) | E. coli (A) | – |
| PF-581: peptide having multiple activities (WTARARR; Peptide with targeting and/or antimicrobial activity) | C. jejuni (A) | S. pneumoniae (A) | E. faecalis (A) | G B | – | MRSA (A) | – | – | – |
| PF-585: peptide having multiple activities (DYNHLLNVVQDWVNTN; Peptide with targeting and/or antimicrobial activity) | C. jejuni (R) | S. pneumoniae (R) | E. faecalis (A) | G B | S. epidermidis and E. coli and C. albicans and MRSA and S. pneumoniae and C. jeikeium | MRSA (S) | S. epidermidis (S) | – | – |
| PF-590: peptide having multiple activities (YYQAKLFPLL; Peptide with targeting and/or antimicrobial activity) | C. jejuni (R) | – | – | G B | S. epidermidis; also recorded: M. luteus; also recorded: E. coli; also recorded: E. faecalis; also recorded: C. jeikeium | – | – | – | – |
| PF-599: peptide having multiple activities (LFEIFKPKH; Peptide with targeting and/or antimicrobial activity) | C. jejuni (R) | S. pneumoniae (R) | E. faecalis (A) | G B | – | MRSA (C) | S. epidermidis (M) | – | S. epidermidis and P. mirabilis and E. coli and C. albicans and MRSA and S. pneumoniae and C. jeikeium |
| PF-601: peptide having multiple activities (YRVTVKALE; Peptide with targeting and/or antimicrobial activity) | C. jejuni (A) | – | E. faecalis (A) | G B | – | – | – | – | C. jeikeium |
| PF-607: peptide having multiple activities (YIESDPRKFDYIFGAIRDH; Peptide with targeting and/or antimicrobial activity) | C. jejuni (R) | S. pneumoniae (R) | E. faecalis (A) | G B | – | MRSA (S) | S. epidermidis (M) | – | S. epidermidis and P. mirabilis and E. coli and MRSA and S. pneumoniae and C. jeikeium |
| PF-609: peptide having multiple activities (TEIKLDNNEYLVLNLDDILGILK; Peptide with targeting and/or antimicrobial activity) | C. jejuni (R) | S. pneumoniae (R) | E. faecalis (A) | G B | – | MRSA (C) | – | – | P. mirabilis; also recorded: E. coli; also recorded: S. pneumoniae |
| PF-614: peptide having multiple activities (GLDIYA; Peptide with targeting and/or antimicrobial activity) | C. jejuni (R) | S. pneumoniae (R) | E. faecalis (A) | – | – | – | S. epidermidis (M) | – | S. epidermidis; also recorded: E. coli; also recorded: C. jeikeium |
| PF-389: peptide having multiple activities (Peptide with targeting and/or antimicrobial activity) chain 1: GLQFKEIAEEFHITTTALQQWHKDNGYPIYNKNNRK chain 2: GLQFKEIAEEFHITTTALQQWHKDNGYPIYNKNNRK | C. jejuni (R) | S. pneumoniae (D) | E. faecalis (R) | G B | S. epidermidis and C. albicans and MRSA and S. pneumoniae and E. faecalis and C. jeikeium | MRSA (C) | S. epidermidis (R) | – | – |
